Experimental findings from patent publication US12485117B2, “Compositions and methods for activating signaling through the CB1 cannabinoid receptor for treating and preventing diseases and disorders characterized by abnormal cellular accumulation of sphingolipids such as sphingomyelin” (Wylder Nation Foundation, priority 2018, dated 2025) are described below.

The assay relates to microglia. As to the kind of experiment: Microglia number and morphology by iba-1 immunofluorescence after 8-week treatment. The following applies: 0.3 mg/kg every three days. The format is in vivo, mouse. How it is done: Representative images of microglia stained for iba-1 (green) in the cerebellum, hippocampus and cortex of wt and ASMko mice treated or not with PF-04457845. […] Graphs show mean±SEM microglia number and cell body area (n=7, **p<0.01, *p<0.05).
Treatment started at 7 weeks of age and continued for 8 weeks. PF-04457845 was dissolved in 0.9% NaCl and delivered through oral gavage at a dose of 0.3 mg/kg every three days. We chose this dose based on the studies published by Ahn et al., (J Pharm Exp Ther 2011). Control groups received same volume of 0.9% NaCl without PF-04457845.
Brain inflammation was determined by analysis of glial cells in the cerebellum, hippocampus and cortex. The number and morphology of microglia was analyzed by immunofluorescence staining with the marker iba-1 (FIG. 16). […] PF-04457845 treatment had no effect in microglia of wt mice. The amount of astrocytes was analyzed by immunofluorescence with the marker GFAP (FIG. 17). […] PF-04457845 treatment had no effect in astrocytes of wt mice (FIG. 17).

With `O=C(Nc1cccnn1)N1CCC(=Cc2cccc(Oc3ccc(C(F)(F)F)cn3)c2)CC1` [PF-04457845], under “ASMko mice”, the “microglia amoeboid morphology in the hippocampus and cerebellum” value is on record as “normalized to a significant extent”; the “microglia morphology in cerebellum (iba-1)” value is on record as “normalized their morphology”; the “microglia number in cerebellum (iba-1)” value is “reduced microglia number”. Also, for the setting “wt mice”, the microglia entry was “no effect”.
